Earlier results in patent publication US20090053769A1, “HETEROLOGOUS PRODUCTION OF NATURAL PRODUCTS IN BACTERIA” (University of Southern California, priority 2007, published 2009).
Positions of bridges follow the written chain, without caps; N, C: chain ends. Non-standard residues stand in square brackets, D forms with d. Residues, ends and D or L forms follow the SMILES beside them. Chains are numbered I, II in the order given. *: point of attachment. Quinoxaline2carbonyl = O=C(c1cnc2ccccc2n1)*; NMeV = CN[CH](C(=O)O)C(C)C; NMeC = CN[CH](CS)C(=O)O

Settings: general statement on antibacterial, anticancer and antiviral activities, reference 24

Structure (SMILES) | potency
CS[C@H]1SC[C@H]2C(=O)N(C)[C@@H](C(C)C)C(=O)OC[C@@H](NC(=O)c3cnc4ccccc4n3)C(=O)N[C@@H](C)C(=O)N(C)[C@@H]1C(=O)N(C)[C@@H](C(C)C)C(=O)OC[C@@H](NC(=O)c1cnc3ccccc3n1)C(=O)N[C@@H](C)C(=O)N2C [compound 1, echinomycin] | nanomolar potency
CC1NC(=O)C(NC(=O)c2cnc3ccccc3n2)COC(=O)C(C(C)C)N(C)C(=O)C2CSSCC(C(=O)N(C)C(C(C)C)C(=O)OCC(NC(=O)c3cnc4ccccc4n3)C(=O)NC(C)C(=O)N2C)N(C)C1=O (centres unmarked) [compound 2, triostin A] (I: Quinoxaline2carbonyl-SA[NMeC][NMeV] / II: Quinoxaline2carbonyl-SA[NMeC][NMeV]; ester I:1-II:C, I:C-II:1; disulfide I:3-II:3; configuration not given here) | nanomolar potency
